Experimental data from patent publication US8889878B2, “Haloalky-substituted amides as insecticides and acaricides” (Bayer CropScience AG, priority 2009, dated 2014).

Assays:
Boophilus microplus [1] = assay: Boophilus microplus test (BOOPMI injection), Example 1; assay type: in vivo; details: application rate 20 μg/animal, injected into abdomen, after 7 days
Procedure: Boophilus microplus Test (BOOPMI Injection) • Solvent: dimethyl sulphoxide To prepare an active ingredient formulation, 10 mg of active ingredient are mixed with 0.5 ml of solvent and the concentrate is diluted with water to the desired concentration. The active ingredient solution was injected into the abdomen (Boophilus microplus), and the animals were transferred to dishes and stored in a climate-controlled room. The efficacy was assessed by the number of fertile eggs laid. After 7 days, the efficacy in % is determined. 100% means that no tick laid fertile eggs.

Boophilus microplus [2] = assay: Boophilus microplus test (BOOPMI injection), Example 11; assay type: in vivo; details: application rate 20 μg/animal, injected into abdomen, after 7 days; for pest or weed control at 0.02 mg: Rhipicephalus microplus, 168 h, read-out: efficacy in % (fertile eggs laid)
How it was run: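 Efficacy rated from fertile egg laying: 100% means none of the ticks laid fertile eggs, read after 7 days. Compound, dissolved and diluted in DMSO, was delivered by abdominal injection, and ticks were kept in dishes under climate control.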

Ctenocephalides felis = Ctenocephalides felis oral (CTECFE), Example 12; assay type: in vivo; details: application rate 100 ppm in citrated cow's blood, after 2 days
Procedure: Ctenocephalides felis Oral ([…]) • Solvent: 1 part by weight of dimethyl sulphoxide For the purpose of preparing an appropriate active ingredient formulation, 10 mg of active ingredient are mixed with 0.5 ml of dimethyl sulphoxide. A portion of the concentrate is diluted with citrated cow's blood and the desired concentration is established. About 20 unfed adult fleas (Ctenocephalides felis) are placed into a chamber sealed at the top and bottom with gauze. A metal cylinder with its lower end sealed with Parafilm is placed onto the chamber. The cylinder contains the blood-active ingredient preparation, which can be consumed by the fleas through the Parafilm membrane. After 2 days, the kill rate in % is determined. 100% means that all fleas were killed; 0% means that no fleas were killed.

[3] = system: mustard beetle (Phaedon cochleariae); assay: Phaedon test (PHAECO spray treatment), Example 16; assay type: in vivo; details: china cabbage leaf discs sprayed, after the desired time; for pest or weed control at 500 g/ha / pest or weed control at 100 g/ha: Phaedon cochleariae, foliar, read-out: efficacy in %; for pest or weed control at 100 g/ha: application rate 100 g/ha
Procedure: Phaedon Test (PHAECO Spray Treatment)
(§1) • Solvent: 78.0 parts by weight of acetone • 1.5 parts by weight of dimethylformamide • Emulsifier: 0.5 part by weight of alkylaryl polyglycol ether
To prepare an appropriate active ingredient formulation, 1 part by weight of active ingredient is mixed with the stated amounts of solvent and emulsifier, and the concentrate is diluted with emulsifier-containing water to the desired concentration. […]
After the desired time, the efficacy in % is determined. 100% means that all beetle larvae were killed; 0% means that no beetle larvae were killed.

[4] = logP by HPLC on reverse-phase column (EEC Directive 79/831 Annex V.A8); assay type: physicochemical; details: for chromatographic logP: reverse-phase C18 HPLC column
Procedure: The logP values reported in the above Tables and Preparation Examples were determined according to EEC Directive 79/831 Annex V.A8 by HPLC (High Performance Liquid Chromatography) on a reverse-phase column (C18). Temperature 43° C.

[5] = system: mustard beetle (Phaedon cochleariae); assay: Phaedon test (PHAECO spray treatment), Example 7; assay type: in vivo; details: application rate 20 g/ha, china cabbage leaf discs sprayed, after 7 days
How it was run: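 Spray formulation (acetone/DMF with alkylaryl polyglycol ether, diluted in emulsifier-containing water) applied to Chinese cabbage leaf discs, which were dried and then stocked with mustard beetle larvae. Efficacy scored at 7 days as % larvae killed (100% all, 0% none).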

[6] = system: red spider mite (Tetranychus urticae); assay: Tetranychus test, OP-resistant (TETRUR spray treatment), Example 8; assay type: in vivo; details: application rate 20 g/ha, common bean leaf discs sprayed, after 6 days
How it was run: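 Bean (Phaseolus vulgaris) leaf discs carrying all stages of OP-resistant Tetranychus urticae sprayed with compound in acetone/DMF with emulsifier, diluted in water to the test concentration. Mortality scored after 6 days as % efficacy (100% = all mites killed).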

[7] = system: armyworm (Spodoptera frugiperda); assay: Spodoptera frugiperda test (SPODFR spray treatment), Example 15; assay type: in vivo; details: maize leaf discs sprayed, after 7 days; for pest or weed control at 500 g/ha / pest or weed control at 100 g/ha: Spodoptera frugiperda, foliar, 168 h, read-out: efficacy in %
How it was run: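 Caterpillars placed on dried, sprayed Zea mays leaf discs; formulation of acetone, dimethylformamide and emulsifier diluted with emulsifier-containing water to test concentration. Percent kill scored on day 7.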

[8] = system: red spider mite (Tetranychus urticae); assay: Tetranychus test; OP-resistant (TETRUR spray treatment), Example 18; assay type: in vivo; details: common bean leaf discs sprayed, after 6 days; for pest or weed control at 100 g/ha / pest or weed control at 500 g/ha: Tetranychus urticae, foliar, 144 h, read-out: efficacy in %; for pest or weed control at 100 g/ha: application rate 100 g/ha
Procedure: Tetranychus Test; OP-Resistant (TETRUR Spray Treatment)
as §1
To prepare an appropriate active ingredient formulation, 1 part by weight of active ingredient is mixed with the stated amounts of solvent and emulsifier, and the concentrate is diluted with emulsifier-containing water to the desired concentration. Leaf discs from the common bean (Phaseolus vulgaris) infested by all stages of the red spider mite (Tetranychus urticae) are sprayed with an active ingredient formulation of the desired concentration.
After 6 days, the efficacy in % is determined. 100% means that all spider mites were killed; 0% means that no spider mites were killed.

[9] = system: Boophilus microplus females of the SP-resistant Parkhurst strain; assay: Boophilus microplus test (DIP), Example 10; assay type: in vivo; details: application rate 100 ppm, after 7 days
Procedure: Boophilus microplus Test (DIP)
Test animals: adult engorged Boophilus microplus females of the SP-resistant Parkhurst strain • Solvent: dimethyl sulphoxide
10 mg of active ingredient are dissolved in 0.5 ml of dimethyl sulphoxide. For the purpose of preparing a suitable formulation, the active ingredient solution is diluted with water to the concentration desired in each case.
This active ingredient formulation is pipetted into tubes. 8-10 ticks are transferred into a further tube with holes. The tube is immersed into the active ingredient formulation, and all ticks are completely wetted. After the liquid has run out, the ticks are transferred onto filter discs in plastic dishes and stored in a climate-controlled room. The efficacy is assessed after 7 days by the number of fertile eggs laid. Eggs whose fertility is not outwardly visible are stored in glass tubes in a climate-controlled cabinet until the larvae hatch. Efficacy of 100% means that none of the ticks has laid any fertile eggs.

[10] = system: green peach aphid (Myzus persicae); assay: Myzus test (MYZUPE spray treatment), Example 17; assay type: in vivo; details: application rate 100 g/ha, china cabbage leaf discs sprayed, after 6 days
How it was run: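 Efficacy recorded at 6 days as % kill, where 100% means every aphid dead and 0% none. Spray applied to Brassica pekinensis leaf discs bearing mixed-stage aphids; active ingredient dissolved in acetone with dimethylformamide and emulsifier, then diluted with emulsifier-containing water.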

[11] = pH 2.7, HPLC, C18 reverse phase, 43° C., acidic range pH 2.7, calibration with alkan-2-ones

O=C(/C=C/c1cccc(NC(=O)c2cccnc2Cl)c1)NC(c1cccc(C(F)(F)F)c1)C(F)(F)F (centres unmarked) [Ia-5, 2-Chloro-N-{3-[(1E)-3-oxo-3-({2,2,2-trifluoro-1-[3-(trifluoromethyl)phenyl]ethyl}amino)prop-1-en-1-yl]phenyl}nicotinamide]
efficacy in % (fertile eggs laid) (Boophilus microplus [1]): 100% | pest or weed control at 0.02 mg (Boophilus microplus [2]): 100% | kill rate in % (efficacy) (Ctenocephalides felis): 80% | pest or weed control at 500 g/ha ([3]; application rate 500 g/ha): 100% | chromatographic logP [4, 11]: 3.39

Cn1cnc(CNC(=O)c2ccc(/C=C/C(=O)NC(c3cccc(C(F)(F)F)c3)C(F)(F)F)cc2C(F)(F)F)c1 (centres unmarked) [Ia-76]
efficacy in % (fertile eggs laid) (Boophilus microplus [1]): 100% | efficacy in % [5]: 100% | efficacy in % (fertile eggs laid) (Boophilus microplus [2]): 100% | kill rate in % (efficacy) (Ctenocephalides felis): 80% | logP ([4]; HPLC-MS): HPLC-MS: logP = 1.72; mass

Cc1cc(/C=C/C(=O)NC(c2cccc(C(F)(F)F)c2)C(F)(F)F)ccc1C(=O)NCC(F)F (centres unmarked) [Ia-100]
efficacy in % [5]: 100% | efficacy in % [6]: 80% | efficacy in % ([7]; application rate 500 g/ha): Ia-100% | efficacy in % ([3]; application rate 500 g/ha): Ia-100% | efficacy in % ([8]; application rate 500 g/ha): Ia-100% | logP ([4]; HPLC-MS): HPLC-MS: logP = 3.13 mass

CC(NC(=O)c1ccc(/C=C/C(=O)NC(c2cccc(C(F)(F)F)c2)C(F)(F)F)cc1Cl)C1CC1 (centres unmarked) [Ia-114]
efficacy in % [5]: 100% | efficacy in % [6]: 100% | efficacy in % (fertile eggs laid) [9]: 85% | efficacy in % (fertile eggs laid) (Boophilus microplus [2]): 100% | logP ([4]; HPLC-MS): HPLC-MS: logP = 3.68 mass

O=C(/C=C/c1ccc(C(=O)NC2CSC2)c(C(F)(F)F)c1)NC(c1cccc(C(F)(F)F)c1)C(F)(F)F (centres unmarked) [Ia-130, 4-[(1E)-3-oxo-3-({2,2,2-trifluoro-1-[3-(trifluoromethyl)phenyl]ethyl}-amino)prop-1-en-1-yl]-N-(thietan-3-yl)-2-(trifluoromethyl)benzamide]
pest or weed control at 0.02 mg (Boophilus microplus [2]): 100% | pest or weed control at 100 g/ha [3]: 100% | efficacy in % [10]: 100% | pest or weed control at 100 g/ha [8]: 80% | chromatographic logP ([4]; HPLC-MS): 3.62

C#CC(C)(C)NC(=O)c1ccc(/C=C/C(=O)NC(c2cccc(C(F)(F)F)c2)C(F)(F)F)cc1C(F)(F)F (centres unmarked) [Ia-146]
efficacy in % (fertile eggs laid) (Boophilus microplus [2]): 100% | kill rate in % (efficacy) (Ctenocephalides felis): 90% | efficacy in % ([7]; application rate 100 g/ha): 100% | logP ([4]; HPLC-MS): HPLC-MS: logP = 3.8; mass

O=C(/C=C/c1ccc(C(=O)NC(CF)CF)c(Cl)c1)NC(c1cccc(C(F)(F)F)c1)C(F)(F)F (centres unmarked) [Ia-155]
efficacy in % (fertile eggs laid) [9]: 90% | efficacy in % (fertile eggs laid) (Boophilus microplus [2]): 100% | efficacy in % ([7]; application rate 100 g/ha): 83% | efficacy in % [10]: 100% | logP ([4]; HPLC-MS): HPLC-MS: logP = 3.36; mass

O=C(/C=C/c1ccc(C(=O)NC2CC2)c(C(F)(F)F)c1)NC(c1cc(F)cc(C(F)(F)F)c1)C(F)(F)F (stereo not drawn) [Ia-229, N-[α,3-Bis(trifluoromethyl)-5-fluorobenzenemethane]-3-trifluoromethyl-4-(N-cyclopropylcarbamoyl)cinnamide]
pest or weed control at 500 g/ha ([7]; application rate 500 g/ha): 100% | pest or weed control at 500 g/ha ([3]; application rate 500 g/ha): 100% | pest or weed control at 500 g/ha ([8]; application rate 500 g/ha): 100% | chromatographic logP [4, 11]: 3.59

CC(C)C(=O)NCc1ccc(/C=C/C(=O)NC(c2cccc(C(F)(F)F)c2)C(F)(F)F)cc1C(F)(F)F (centres unmarked) [Ia-266, (2E)-3-{4-[(Isobutyrylamino)methyl]-3-(trifluoromethyl)phenyl}-N-{2,2,2-trifluoro-1-[3-(trifluoromethyl)phenyl]ethyl}acrylamide]
pest or weed control at 100 g/ha ([7]; application rate 100 g/ha): 100% | pest or weed control at 100 g/ha [3]: 100% | pest or weed control at 100 g/ha [8]: 90% | chromatographic logP [4, 11]: 3.78

O=C(NC(c1cccc(C(F)(F)F)c1)C(F)(F)F)c1cc2cc(C(=O)NC3CC3)c(Cl)cc2[nH]1 (centres unmarked) [Ic-24, 6-Chloro-N^5-cyclopropyl-N^2-{2,2,2-trifluoro-1-[3-(trifluoromethyl)phenyl]ethyl}-1H-indole-2,5-dicarboxamide]
efficacy in % [5]: 100% | pest or weed control at 0.02 mg (Boophilus microplus [2]): 100% | pest or weed control at 500 g/ha ([7]; application rate 500 g/ha): 100% | pest or weed control at 500 g/ha ([3]; application rate 500 g/ha): 100% | pest or weed control at 500 g/ha ([8]; application rate 500 g/ha): 100% | chromatographic logP [4, 11]: 3.08

C=CCNC(=O)c1cc2cc(C(=O)NC(c3cccc(C(F)(F)F)c3)C(F)(F)F)n(C)c2cc1Cl (centres unmarked) [Ic-32, N^5-Allyl-6-chloro-1-methyl-N^2-{2,2,2-trifluoro-1-[3-(trifluoromethyl)phenyl]ethyl}-1H-indole-2,5-dicarboxamide]
pest or weed control at 500 g/ha ([7]; application rate 500 g/ha): 100% | pest or weed control at 500 g/ha ([3]; application rate 500 g/ha): 100% | pest or weed control at 500 g/ha ([8]; application rate 500 g/ha): 100% | chromatographic logP [4, 11]: 3.68

CC(=O)NC1CCc2cc(/C=C/C(=O)NC(c3cccc(C(F)(F)F)c3)C(F)(F)F)ccc21 (centres unmarked) [Ie-1, (2E)-3-(1-Acetamido-2,3-dihydro-1H-inden-5-yl)-N-{2,2,2-trifluoro-1-[3-(trifluoromethyl)-phenyl]ethyl}acrylamide]
pest or weed control at 100 g/ha ([7]; application rate 100 g/ha): 100% | pest or weed control at 100 g/ha [3]: 100% | pest or weed control at 100 g/ha [8]: 90% | chromatographic logP [4, 11]: 3

O=C(/C=C/c1cc(C(F)(F)F)c(C(=O)NC2CC2)cn1)NC(c1cccc(C(F)(F)F)c1)C(F)(F)F (centres unmarked) [If-2, N-Cyclopropyl-6-[(1E)-3-oxo-3-({2,2,2-trifluoro-1-[3-(trifluoromethyl)phenyl]ethyl}amino)-prop-1-en-1-yl]-4-(trifluoromethyl)nicotinamide]
pest or weed control at 100 g/ha ([7]; application rate 100 g/ha): 83% | pest or weed control at 100 g/ha [3]: 100% | efficacy in % [10]: 100% | pest or weed control at 100 g/ha [8]: 100% | chromatographic logP [4, 11]: 3.27

O=C(/C=C\c1ccc(C(=O)NC2CC2)c(Cl)c1)NC(c1cccc(C(F)(F)F)c1)C(F)(F)F (centres unmarked) [Ig-1, 2-Chloro-N-cyclopropyl-4-[(1Z)-3-oxo-3-({2,2,2-trifluoro-1-[3-(trifluoromethyl)phenyl]ethyl}-amino)prop-1-en-1-yl]benzamide]
pest or weed control at 100 g/ha [3]: 100% | pest or weed control at 100 g/ha [8]: 80% | chromatographic logP [4, 11]: 3.06
